The assay has as its target mGluR1 (Homo sapiens, UniProt Q13255). Briefly: mGluR1 activity screening using FDSS6000 (intracellular calcium, L-Glutamate stimulation). It is filed as cell-based. As to conditions: Chem3 Cell Line (HTS145C:Millipore) stably expressing mGluR1, L-Glutamate 30 μM, Ca2+ fluorescent dye, read-out: IC50 (nM) against mGluR1. How it is done:
mGluR1 Activity Screening Method Using FDSS6000
Cells of Chem3 Cell Line (HTS145C:Millipore) in which mGluR1 was stably expressed were adjusted to a density of 2×10^6/ml. 50 μl of the cells were plated in each well of a 96-well plate, and stabilized at 5% CO2 and 37° C. for 1 hr. The cells were allowed to react with an HBSS buffer containing a Ca^2+ fluorescent dye (FLIPR Calcium 5 assay kit: Molecular Devices) under the conditions of 5% CO2 and 37° C. for 30 min. As a result of the reaction, the cells were labeled with the fluorescent dye. Separately from the 96-well plate containing the fluorescently labeled cells, another 96-well plate was prepared that contained L-Glutamate (final concentration=30 μM) activating mGluR1 and a blocking drug to be screened. Most cell-based HTS systems have liquid application systems necessary for drug injection but no liquid inhalation systems. For this reason, 25 μl of each of the blocking drug and L-Glutamate was prepared at a 6-fold higher concentration in an HBSS buffer and diluted 6-fold in the final volume […] of the cell plate before measurement. Specifically, after drug pretreatment for 75 sec following recording the reference value at 20 sec, a change in intracellular calcium concentration caused by L-glutamate administration was measured using FDSS6000. The inhibitory effect of the test substance was expressed as a percent (%) relative to the area of the 480 nm/520 nm ratio in a control group untreated with the test substance. 10 μM PCTC20001 was always used as the control drug.
For detailed imaging of calcium, the cells were selectively exposed to an excitation wavelength (480 nm) from four xenon light sources mounted in FDSS6000 through a computer-controlled filter wheel. Data were recorded at 1.23-sec intervals. Emitter fluorescence light entering through a 520 nm long-pass filter was allowed to pass through a cooled CCD camera mounted in the system. An average 480 nm/520 nm ratio was obtained in each well of the 96-well plate using a digital fluorescence analyzer. All imaging data were collected and analyzed with the help of a dedicated program for FDSS6000 (Hamamatsu Photonics).
Measurement of IC50 Values Against mGluR1
The IC50 values (nM) of the novel compounds of Formula 1 according to the present invention against mGluR1 are shown in Table 1.
In general terms: Calcium flux is commonly read through the fluorescence of an indicator in the cells.

We go through eleven compounds from patent US9260448B2, “Thienopyrimidinone derivatives as mGluR1 antagonists” (KOREA INSTITUTE OF SCIENCE AND TECHNOLOGY, priority 2013, dated 2016).

Structures are written as SMILES.

Sequence of mGluR1 (Q13255 19-1194): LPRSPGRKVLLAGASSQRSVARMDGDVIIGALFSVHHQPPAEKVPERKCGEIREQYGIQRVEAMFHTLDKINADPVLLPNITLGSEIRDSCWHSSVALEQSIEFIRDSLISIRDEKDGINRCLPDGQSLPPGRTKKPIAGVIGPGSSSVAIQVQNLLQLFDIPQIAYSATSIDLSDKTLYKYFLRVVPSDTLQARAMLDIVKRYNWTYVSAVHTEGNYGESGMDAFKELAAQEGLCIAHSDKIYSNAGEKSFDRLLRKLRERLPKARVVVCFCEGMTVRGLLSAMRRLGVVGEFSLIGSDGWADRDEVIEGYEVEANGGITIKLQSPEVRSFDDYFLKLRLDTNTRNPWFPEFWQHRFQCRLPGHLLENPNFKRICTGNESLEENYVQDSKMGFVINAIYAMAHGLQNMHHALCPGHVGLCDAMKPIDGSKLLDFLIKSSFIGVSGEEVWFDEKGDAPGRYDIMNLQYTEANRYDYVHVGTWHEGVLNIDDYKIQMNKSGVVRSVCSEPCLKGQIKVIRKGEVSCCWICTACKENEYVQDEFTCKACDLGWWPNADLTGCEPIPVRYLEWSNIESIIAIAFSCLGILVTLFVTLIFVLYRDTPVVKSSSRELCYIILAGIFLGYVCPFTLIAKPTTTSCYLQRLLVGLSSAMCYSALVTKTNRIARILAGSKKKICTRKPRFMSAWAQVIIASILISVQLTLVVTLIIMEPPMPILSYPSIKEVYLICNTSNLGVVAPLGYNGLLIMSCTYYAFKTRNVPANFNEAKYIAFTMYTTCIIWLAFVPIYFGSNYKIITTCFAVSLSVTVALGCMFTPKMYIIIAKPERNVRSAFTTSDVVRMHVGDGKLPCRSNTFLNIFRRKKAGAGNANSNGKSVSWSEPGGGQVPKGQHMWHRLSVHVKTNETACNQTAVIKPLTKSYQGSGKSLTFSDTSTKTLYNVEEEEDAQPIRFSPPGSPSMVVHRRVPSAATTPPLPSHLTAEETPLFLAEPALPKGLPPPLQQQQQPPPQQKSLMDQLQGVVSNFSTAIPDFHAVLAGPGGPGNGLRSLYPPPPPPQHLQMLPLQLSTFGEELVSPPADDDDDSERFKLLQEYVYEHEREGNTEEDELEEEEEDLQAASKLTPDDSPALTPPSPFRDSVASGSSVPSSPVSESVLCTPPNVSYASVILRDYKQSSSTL

Turning to `O=c1c2scc(-c3ccccc3)c2ncn1-c1ccccc1F` [Compound 2, 3-(2-Fluorophenyl)-7-phenylthieno[3,2-d]pyrimidin-4(3H)-one], the concentration for half-maximal inhibition (IC50) was determined as 407 nM.
Then `O=c1c2scc(-c3ccccc3)c2ncn1-c1cccc(Cl)c1` [Compound 6, 3-(3-Chlorophenyl)-7-phenylthieno[3,2-d]pyrimidin-4(3H)-one], with 58 nM; and `O=c1c2scc(-c3ccccc3)c2ncn1-c1ccc(Cl)cc1` [Compound 7, 3-(4-Chlorophenyl)-7-phenylthieno[3,2-d]pyrimidin-4(3H)-one], with 66 nM.
Then `Cc1ccc(-n2cnc3c(-c4ccccc4)csc3c2=O)cc1` [Compound 18, 7-Phenyl-3-p-tolylthieno[3,2-d]pyrimidin-4(3H)-one], with 112 nM.
The figure for `C=Cc1cccc(-n2cnc3c(-c4ccccc4)csc3c2=O)c1` [Compound 29, 7-Phenyl-3-(3-vinylphenyl)thieno[3,2-d]-pyrimidin-4(3H)-one] is 74 nM; for `O=c1c2scc(-c3ccccc3F)c2ncn1-c1ccc(Cl)cc1` [Compound 32, 3-(4-Chlorophenyl)-7-(2-fluorophenyl)thieno[3,2-d]pyrimidin-4(3H)-one] it is 30 nM.
As for `Cc1ccc(-c2csc3c(=O)n(-c4ccc(Cl)cc4)cnc23)cc1` [Compound 58, 3-(4-Chlorophenyl)-7-(p-tolyl)thieno[3,2-d]pyrimidin-4(3H)-one], the half-maximal inhibitory concentration (IC50) came to 80 nM.
The figure for `COc1ccc(-n2cnc3c(-c4ccc(C)cc4)csc3c2=O)cc1` [Compound 59, 3-(4-Methoxyphenyl)-7-(p-tolyl)thieno[3,2-d]pyrimidin-4(3H)-one] is 661 nM; for `O=c1c2scc(-c3ccc4c(c3)OCO4)c2ncn1-c1ccc(Cl)cc1` [Compound 68, 7-(Benzo[d][1,3]dioxol-5-yl)-3-(4-chlorophenyl)thieno[3,2-d]pyrimidin-4(3H)-one] it is 447 nM; for `COc1ccc(-n2cnc3c(-c4ccc5c(c4)OCO5)csc3c2=O)cc1` [Compound 69, 7-(Benzo[d][1,3]dioxol-5-yl)-3-(4-methoxyphenyl)thieno[3,2-d]pyrimidin-4(3H)-one] it is 1990 nM.
Then `COc1ccc(-n2c(C)nc3c(-c4ccccc4)csc3c2=O)cc1` [Compound 74, 3-(4-Methoxyphenyl)-2-methyl-7-phenylthieno[3,2-d]pyrimidin-4(3H)-one], with 564 nM.

What is called IC50 is the concentration at which inhibition is half-maximal.
